Test results reported in patent publication US20110288052A1, “NOVEL COMPOUNDS, PHARMACEUTICAL COMPOSITIONS CONTAINING SAME, AND METHODS OF USE FOR SAME” (priority 2008, published 2011).
Values after ≈ are worked out from the molar mass of the structure shown.

Legend:
Assay type in all cases: cell-based
[1] = system: MCF-7 human breast cancer cells; experiment: XTT cytotoxicity assay, MCF-7 (M); conditions: MCF7, MCF-7, 72 hours
Description: XTT Cytotoxicity Assay The XTT assay is a non-radioactive alternative for the [^51Cr] release cytotoxicity assay. XTT is a tetrazolium salt that is reduced to a formazan dye only by metabolically active, viable cells. The reduction of XTT is measured spectrophotometrically as OD490-OD650. To measure the cytotoxicity of specific compounds against cancer cells, 9×10^3 MCF-7 human breast cancer cells (shown in the tables as “(M)”), obtained from the American Type Culture Collection are plated per well in 96 well plates in DMEM medium with 10% fetal bovine serum, insulin, penicillin, and streptomycin. Following overnight culture at 37° C. and 5% CO2, the compounds to be tested, dissolved in DMSO, are added to the wells in 1 μl volume at the following concentrations: 80, 40, 20, 10, 5, 2.5, 1.25, and 0.625 μg/ml in triplicate. Additional concentrations are tested if required. 1 μl of DMSO is added to triplicate wells are the vehicle control. C75 is run at 40, 20, […], and 5 μg/ml in triplicate as positive controls. After 72 hours of incubation, cells are incubated for 4 hours with the XTT reagent as per manufacturer's instructions (Cell Proliferation Kit II (XTT) Roche). Plates are read at OD490 and OD650 on a Molecular Devices SpectraMax Plus Spectrophotometer. Three wells containing the XTT reagent without cells serve as the plate blank. XTT data are reported as OD490-OD650. Averages and standard error of the mean are computed using SOFTmax Pro software (Molecular Dynamics). The IC50 for the compounds is defined as the concentration of drug leading to a 50% reduction in OD490-OD650 compared to controls. The OD490-OD650 are computed by the SOFTmax PRO software (Molecular Devices) for each compound concentration. IC50 is calculated by linear regression, plotting the FAS activity as percent of control versus drug concentrations. Linear regression, best-fit line, r^2, and 95% confidence intervals are determined using Prism Version 3.0 (Graph Pad Software).

HCT116 cells = experiment: XTT cytotoxicity assay, HCT116 (H); conditions: Homo sapiens, HCT-116
Description: (§1) XTT Cytotoxicity Assay The XTT assay is a non-radioactive alternative for the [^51Cr] release cytotoxicity assay. XTT is a tetrazolium salt that is reduced to a formazan dye only by metabolically active, viable cells. The reduction of XTT is measured spectrophotometrically as OD490-OD650. To measure the cytotoxicity of specific compounds against cancer cells, 9×10^3 MCF-7 human breast cancer cells (shown in the tables as “(M)”), obtained from the American Type Culture Collection are plated per well in 96 well plates in DMEM medium with 10% fetal bovine serum, insulin, penicillin, and streptomycin. Following overnight culture at 37° C. and 5% CO2, the compounds to be tested, dissolved in DMSO, are added to the wells in 1 μl volume at the following concentrations: 80, 40, 20, 10, 5, 2.5, 1.25, and 0.625 μg/ml in triplicate. Additional concentrations are tested if required. 1 μl of DMSO is added to triplicate wells are the vehicle control. C75 is run at 40, 20, […], and 5 μg/ml in triplicate as positive controls. After 72 hours of incubation, cells are incubated for 4 hours with the XTT reagent as per manufacturer's instructions (Cell Proliferation Kit II (XTT) Roche). Plates are read at OD490 and OD650 on a Molecular Devices SpectraMax Plus Spectrophotometer. Three wells containing the XTT reagent without cells serve as the plate blank. XTT data are reported as OD490-OD650. Averages and standard error of the mean are computed using SOFTmax Pro software (Molecular Dynamics). The IC50 for the compounds is defined as the concentration of drug leading to a 50% reduction in OD490-OD650 compared to controls. The OD490-OD650 are computed by the SOFTmax PRO software (Molecular Devices) for each compound concentration. IC50 is calculated by linear regression, plotting the FAS activity as percent of control versus drug concentrations. Linear regression, best-fit line, r^2, and 95% confidence intervals are determined using Prism Version 3.0 (Graph Pad Software). The test was also run against OVCAR3 cells (“OV”), and HCT116 cells (“H”).

OVCAR3 cells = experiment: XTT cytotoxicity assay, OVCAR3 (OV); conditions: Homo sapiens, OVCAR-3
Description: as §1

[2] = system: MCF-7 human breast cancer cells (fatty acid oxidation pathway activity); experiment: Fatty acid oxidation ([14C]palmitate to acid soluble products); conditions: for Emax at 0.098 µg/mL: at 0.098 μg/ml; for FAO SC 150: concentration leading to 150% of control acid soluble products, Neg = threshold not reached; for Emax at 6.25 µg/mL: at 6.25 μg/ml; for Emax at 1.56 µg/mL: at 1.56 μg/ml
Description: Measurement of Fatty Acid Oxidation and Determination of SC150 of Compounds This assay measures the degradation of [^14C]palmitate into acid soluble products and is a measure of fatty acid oxidation pathway activity in vitro. It is utilized to measure fatty acid oxidation in vitro. MCF-7 human breast cancer cells cultured as above, are plated at 2.5×10^5 cells per well in 24-well plates. Following overnight incubation, the compounds to be tested, solubilized in DMSO, are added at […], 0.39, 1.56, 6.25, 25, and 100 μg/ml in triplicate, with lower concentrations tested if necessary. DMSO is added to triplicate wells for a vehicle control. C75 is run at 5 and 10 μg/ml in triplicate as positive controls. After 1 hour of incubation, medium is removed 100 uM of [^14C] palmitate in cyclodextran and 200 uM carnitine in serum free medium (250 μl volume) is added to each well. After 30 minutes of additional incubation, the reaction is stopped by addition of 2.6N HClO4. Contents of each well are transferred to 1.5 ml Eppendorf tubes and 4N KOH is added. The tubes are incubated for 30 minutes at 60° C. 1 M NaAcetate and 3N H2SO4 is added to each tube and vortexed. The tubes are centrifuged at 1000 rpm for 5 minutes at RT. 250 μl of the supernatant is transferred to a 2 ml eppendorf tube. To each tube is added: 938 μl of chloroform:methanol (1:1), 468 μl chloroform and 281 μl of deionized water. The tubes are vortexed and centrifuged at 1000 rpm for 5 minutes at RT. 750 μl of the upper phase is transferred into a scintillation vial 5 ml of scintillant is added and vials are counted for 1 minute for ^14C. The Beckman Scintillation counter calculates the average cpm values for triplicates. The SC150 for the compounds is defined as the concentration of drug leading to a 150% increase in production of acid soluble products of [^14C] palmitate as compared to untreated controls. This is determined by plotting the average cpm for each inhibitor concentration tested, performing linear regression and computing the best-fit line, r^2 values, and 95% confidence intervals. The average cpm values are computed by the Beckman scintillation counter (Model LS6500) for each compound concentration. Computation of linear regression, best-fit line, r^2, and 95% confidence intervals are calculated using Prism Version 3.0 (Graph Pad Software). If a compound fails to achieve this 150% threshold it is considered negative. The maximum value achieved is also reported (FAO Max).

[3] = Homo sapiens, MCF7, read-out: FAO Max

| SMILES | IC50 [1] [µg/mL] | IC50 (HCT116 cells) [µg/mL] | IC50 (OVCAR3 cells) [µg/mL] | Emax at 0.098 µg/mL [2, 3] [%] | FAO SC 150 [2] | Emax at 6.25 µg/mL [2, 3] [%] | Emax at 1.56 µg/mL [2, 3] [%] | Emax at 0.39 µg/mL ([2]; Homo sapiens, MCF7, at 0.39 μg/ml, read-out: FAO Max) [%] | Emax at 100 µg/mL ([2]; Homo sapiens, MCF7, at 100 μg/ml, read-out: FAO Max) [%] |
| --- | --- | --- | --- | --- | --- | --- | --- | --- | --- |
| CCCCCCCCC1(C)SC(=O)C=C1OCC(=O)Nc1ccc2c(c1)OCO2 (stereo not drawn) | 8.2 (≈ 19.5 µM) | 14.8 (≈ 35.3 µM) | 9.3 (≈ 22.2 µM) | 45 | Neg | – | – | – | – |
| CCCCCCCCC1(C)SC(=O)C=C1OCC(=O)Nc1ccccc1SC (stereo not drawn) | 26.9 (≈ 63.8 µM) | 31.4 (≈ 74.5 µM) | 43.8 (≈ 104 µM) | – | Neg | 114 | – | – | – |
| CCCCCCCCC1(C)SC(=O)C=C1OCC(=O)Nc1cccc(OC(F)(F)F)c1 (stereo not drawn) | 6.4 (≈ 13.9 µM) | 8 (≈ 17.4 µM) | 11.6 (≈ 25.2 µM) | – | Neg | – | 122 | – | – |
| CCCCCCCCC1(C)SC(=O)C=C1OCC(=O)Nc1ccc(Oc2ccc(Cl)cc2)cc1 (stereo not drawn) | 3.1 (≈ 6.17 µM) | 6.3 (≈ 12.5 µM) | 5 (≈ 9.96 µM) | – | Neg | 109 | – | – | – |
| CCCCCCCCC1(C)SC(=O)C=C1OCC(=O)Nc1ccccc1N1CCCCC1 (stereo not drawn) | 18.6 (≈ 40.6 µM) | 13.1 (≈ 28.6 µM) | 15.5 (≈ 33.8 µM) | – | Neg | – | 119 | – | – |
| CCCCCCCCC1(C)SC(=O)C=C1OCC(=O)Nc1ccc(OC(F)(F)F)cc1 (stereo not drawn) | 1.8 (≈ 3.92 µM) | 3.5 (≈ 7.62 µM) | 3.3 (≈ 7.18 µM) | – | – | – | – | – | – |
| CCCCCCCCC1(C)OC(=O)C=C1OCC(=O)Nc1ccc(Cl)cc1 (stereo not drawn) | 6 (≈ 15.2 µM) | 4.8 (≈ 12.2 µM) | 9.2 (≈ 23.4 µM) | – | Neg | – | – | 95 | – |
| CCCCCCCCC1(C)SC(=O)C=C1OCC(=O)Nc1ccc(-c2cccs2)cc1 (stereo not drawn) | > 80 | > 80 | > 80 | – | 61.9 µg/mL | – | – | – | 168 |
| CCCCCCCCC1(C)SC(=O)C=C1OCC(=O)Nc1ccccc1 (stereo not drawn) | 6.2 (≈ 16.5 µM) | 7.1 (≈ 18.9 µM) | 12.1 (≈ 32.2 µM) | 122 | Neg | – | – | – | – |
| CCCCCCCCC1(C)SC(=O)C=C1OCC(=O)Nc1ccc(Cl)cc1C(F)(F)F (stereo not drawn) | 9.6 (≈ 20.1 µM) | 14 (≈ 29.3 µM) | 24 (≈ 50.2 µM) | – | 1.9 µg/mL | – | 141 | – | – |
